Reference: ChEMBL document CHEMBL1158130, “Cembrane diterpenes from the gorgonian Lophogorgia peruana” (2006)
Calls of active or inactive are those of the source. No cut-off for these calls is given here.

Assays:
HT-29 [1] = test: Growth inhibition of human HT-29 cells by sulforhodamine B assay; format: functional; conditions: for CC50: read-out: LC50 (the source's name)
A549 [2] = test: Growth inhibition of human A549 cells by sulforhodamine B assay; format: functional
MDA-MB-231 [3] = test: Growth inhibition of human MDA-MB-231 cells by sulforhodamine B assay; format: functional
HT-29 [4] = test: Growth inhibition of human HT-29 cells up to 25 uM by sulforhodamine B assay; format: functional, cell-based
MDA-MB-231 [5] = test: Growth inhibition of human MDA-MB-231 cells up to 25 uM by sulforhodamine B assay; format: functional, cell-based
A549 [6] = test: Growth inhibition of human A549 cells up to 25 uM by sulforhodamine B assay; format: functional, cell-based

Compound | GI50 (HT-29 [1]) | TGI (HT-29 [1]) | CC50 (HT-29 [1]) | GI50 (A549 [2]) | TGI (A549 [2]) | GI50 (MDA-MB-231 [3]) | TGI (MDA-MB-231 [3]) | Activity (HT-29 [4]) | Activity (MDA-MB-231 [5]) | Activity (A549 [6]) | LC50 (50% lethal concentration) (MDA-MB-231 [3]) | CC50 (A549 [2]; read-out: LC50 (the source's name))
C=C(C)[C@H]1CC2=C(C=O)C=C(O2)[C@H]2O[C@@]2(C)C[C@@H]2OC(=O)[C@]3(O[C@@H]23)[C@H](OC(C)=O)C1 | 5 µM | 6 µM | 8.4 µM | 5.3 µM | 8.4 µM | 4.8 µM | 6.2 µM | – | – | – | – | –
C=C(C)[C@@H]1CC[C@]2(C)O[C@H]2CC[C@H](C)/C=C/C=C(/C)C(=O)C1 | – | – | – | – | – | – | – | inactive | inactive | inactive | – | –
C=C(C)[C@H]1CC2=C(C=O)C=C(O2)[C@H](O)[C@@](C)(O)C[C@@H]2OC(=O)[C@]3(O[C@@H]23)[C@H](OC(C)=O)C1 [7-EPI-LOPHODIOL A] | 2.8 µM | 4.8 µM | – | 3.9 µM | – | 3.2 µM | 4.6 µM | – | – | – | 8.5 µM | –
C=C(C)[C@@H]1CC2=C(C=O)C=C(O2)[C@@H]2O[C@@]2(C)C[C@H]2OC(=O)[C@@]3(O[C@H]23)[C@@H](OC(C)=O)C1 | – | – | – | – | – | – | – | inactive | inactive | inactive | – | –
CC(=O)OCC1([C@H]2CC3=C(C=O)C=C(O3)[C@H]3O[C@]3(C)C[C@@H]3OC(=O)[C@]4(O[C@@H]34)[C@H](OC(C)=O)C2)CO1 (stereo not given in full) | 8.2 µM | – | – | 5.1 µM | 6.9 µM | 5.1 µM | – | – | – | – | – | –
C=C(C)[C@H]1CC2=C(C=O)C=C(O2)[C@H](O)[C@](C)(O)C[C@@H]2OC(=O)[C@]3(O[C@@H]23)[C@H](OC(C)=O)C1 [LOPHODIOL B] | 14.7 µM | – | – | – | – | – | – | – | – | – | – | –
C=C(C)[C@H]1CC2=C(C=O)C=C(O2)[C@@H](O)[C@@](C)(O)C[C@@H]2OC(=O)[C@]3(O[C@@H]23)[C@H](OC(C)=O)C1 | – | – | – | – | – | – | – | inactive | inactive | inactive | – | –
C=C(C)[C@H]1CC2=C(C=O)C=C(O2)[C@H](OC(C)=O)[C@@](C)(OC(C)=O)C[C@@H]2OC(=O)[C@]3(O[C@@H]23)[C@H](OC(C)=O)C1 [7-EPI-7,8-DI-O-ACETYLLOPHODIOL A] | 6.2 µM | 6.6 µM | 6.9 µM | 3.3 µM | 3.5 µM | 3.7 µM | – | – | – | – | – | 3.9 µM
CC(=O)O[C@@H]1C[C@@H](C2(C)CO2)CC2=C(C=O)C=C(O2)[C@H]2O[C@]2(C)C[C@@H]2OC(=O)[C@]13O[C@@H]23 (stereo not given in full) | 4.6 µM | 6.2 µM | 9.2 µM | 6 µM | 9.7 µM | 5.8 µM | – | – | – | – | – | –
C=C(COC(C)=O)[C@H]1CC2=C(C=O)C=C(O2)[C@H]2O[C@]2(C)C[C@@H]2OC(=O)[C@]3(O[C@@H]23)[C@H](OC(C)=O)C1 | – | – | – | 17.9 µM | – | 14.5 µM | – | – | – | – | – | –
C=C(C)[C@@H]1CCC2=C[C@H](C[C@@]3(C)O[C@@H]3C(=O)/C=C(\C)C(=O)C1)OC2=O [ISOEPOXYLOPHODIONE] | 4.1 µM | 4.4 µM | 4.9 µM | 2.9 µM | 5.5 µM | 2.7 µM | 3.2 µM | – | – | – | 4.1 µM | –
